In general, Kd refers to a measure of binding affinity in units of concentration.

Experiment [1] addresses CFTR (F508del-NBD1-1S) (Homo sapiens, UniProt P13569, F494N/DEL508-508). Also noted: SPR (Biacore T200) steady-state affinity of correctors to immobilized biotinylated CFTR NBD1. Particulars: binder; read-out: ΔF508-NBD1-1S Mean KD. On the procedure: (§1) As described in our previous publication ([21]), binding interactions between biotinylated NBD1 constructs (WT-1S-, F508del-1S-, F508del-3S-NBD1; ~30 kDa each) and corrector compounds were examined with a BIACORE T200 system (GE Healthcare Bio-Sciences AB; Control software v2.0 and Evaluation software v1.0). Briefly, neutravidin (2 mg/mL in water, diluted to 50 μg/mL in 10 mM sodium acetate, pH 5.0; Thermo Fisher Scientific) was amine-coupled to S-series CM5 sensors (~12,000 RU per flow cell) at 25°C using filtered (0.2 μm) and degassed HBS-EP buffer (10 mM HEPES, pH 7.4; 150 mM NaCl; 3 mM EDTA; 0.005% [v/v] Tween-20). After subsequent cooling to 4°C (sample chamber and sensor) and equilibration in PBS running buffer (1× PBS pH 7.4 containing 10% [v/v] glycerol, 2 mM MgCl2, 1 mM ATP, 0.05% [v/v] Tween-20), reference (neutravidin only) and active surfaces (100 μg/mL NBD1 constructs in PBS buffer; capture 5000–8000 RU each) were equilibrated in PBS buffer containing 2% (v/v) DMSO at 10 μL/min. The corrector compounds were titrated over reference and NBD1-immobilized surfaces at 25–50 μL/min (1–2 minutes association plus 2–5 minutes dissociation; 2-fold dilution series for all compounds). Between titration series, the surfaces were regenerated at 50 μL/min using two 30-second pulses of solution I (PBS-DMSO buffer containing 1.0 M NaCl and 0.05% [v/v] Empigen [Anatrace]). […]

For experiment [2], the target named is CFTR (WT-NBD1-1S) (Homo sapiens, UniProt P13569, F494N). Description: biochemical. Also noted: SPR (Biacore T200) steady-state affinity of correctors to immobilized biotinylated CFTR NBD1. On the procedure:
as §1

Sequence of CFTR (WT-NBD1-1S) (P13569 389-678 F494N limits assumed): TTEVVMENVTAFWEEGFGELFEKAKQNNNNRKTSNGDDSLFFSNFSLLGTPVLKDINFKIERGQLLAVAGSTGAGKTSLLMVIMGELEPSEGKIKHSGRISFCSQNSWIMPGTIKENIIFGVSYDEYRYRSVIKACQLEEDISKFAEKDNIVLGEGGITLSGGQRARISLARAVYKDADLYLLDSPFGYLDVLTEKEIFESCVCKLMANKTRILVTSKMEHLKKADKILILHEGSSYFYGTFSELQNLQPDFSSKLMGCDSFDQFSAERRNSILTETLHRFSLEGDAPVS
Sequence of CFTR (F508del-NBD1-1S) (P13569 with tags, fused parts or gaps F494N/DEL508-508 limits assumed): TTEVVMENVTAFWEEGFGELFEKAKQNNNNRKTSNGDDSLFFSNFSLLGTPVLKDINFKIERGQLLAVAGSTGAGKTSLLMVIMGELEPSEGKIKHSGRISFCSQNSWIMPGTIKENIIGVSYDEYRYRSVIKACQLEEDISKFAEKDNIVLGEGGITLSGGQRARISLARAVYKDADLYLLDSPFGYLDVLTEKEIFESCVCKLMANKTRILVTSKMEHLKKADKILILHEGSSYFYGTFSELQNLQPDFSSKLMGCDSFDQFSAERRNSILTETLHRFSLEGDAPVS

As for `Cc1nn(C)cc1S(=O)(=O)NC(=O)c1ccc(-n2ccc(OCC(C)(C)C(F)(F)F)n2)nc1N1C[C@@H](C)CC1(C)C` [compound 20, VX-445], the figures for the Kd in experiment [1] and in experiment [2] were 82 µM and 76 µM, respectively.

As for `CC(C)(CO)c1cc2cc(NC(=O)C3(c4ccc5c(c4)OC(F)(F)O5)CC3)c(F)cc2n1C[C@@H](O)CO` [VX-661, tezacaftor], the equilibrium dissociation constant (Kd) in experiment [1] and in experiment [2] was over 200 µM throughout.
